Test results published in patent US10251865B2, “Method of activating regulatory T cells with alpha-2B adrenergic receptor agonists” (Allergan, Inc., priority 2010, dated 2019).

Columns and labels:
[1] = system: SNL Rat Model of Allodynic Neuropathic Pain; experiment: Allodynia reversal (Von Frey) in the SNL Rat Model of Allodynic Neuropathic Pain; format: in vivo; conditions: for % Allodynia Reversal 24 hr post / % Allodynia Reversal 23 day post / % Allodynia Reversal 7 day post: SNL rats; for blockade of the (long-term) analgesic effect by the immunosuppressant FK506: spinal nerve ligation model, result in words
Method: The SNL (or Chung) Model in the rat is an accepted standard animal model of neuropathic pain and is thought to mimic the human causalgia condition with respect to symptoms (guarding behavior, mechanical allodynia) and alleviation by pharmacological agents. […] The SNL Model is performed by tightly ligating the L-5 and L-6 spinal nerves, which produces tactile allodynia or sensitivity to light touch as described (Kim and Chung, 1992). Male sprague-dawley rats (100-120 grams; Charles River, Wilmington, Mass.) were anesthetized through inhalation of an isoflurane/oxygen mix. The surgical site was shaved and prepared with betadine. An incision was made from the thoracic vertebra XIII toward down the sacrum. The muscle was separated from the spinal vertebra (left side) at the L4-S2 levels. The L6 vertebra was located and then the transverse process was carefully removed with a small rongeur to visually identify the L4-L6 spinal nerves. The L5 and L6 spinal nerves was isolated and tightly ligated with 6-0 silk thread. A complete homeostasis was confirmed and then the wound was sutured. The duration of the surgery was approximately 20 minutes. A small amount of antibiotic ointment was applied to the incised area and the animals were transferred to a plastic recovery cage under a regulated heat-temperature lamp. Animals were not given any topical or local anesthetics post-operatively because they will inhibit the development of the pain syndrome, which is the phenomenon to be studied.
The allodynia is quantitated in the animals having received the Chung surgery by stimulation with a series of 8 Von Frey hairs on the mid planter area of the surgical hind paw in the up-down manner as described in the literature (Dixon, 1980). Von Frey hairs are applied in an up-down manner depending on the response until the 50% threshold is established. The Von Frey hairs are applied to the plantar surface of the surgical paw with just enough force to bend them. A positive response is recorded if the paw is sharply withdrawn. Eight Von Frey hairs were used 3.61, 3.84, 4.08, 4.31, 4.56, 4.74, 4.93 and 5.18 yielding a gram force of 0.25-15 grams.
[formula] • Mean±SEM: • Mean=average of allodynia reversals • SEM=STDEV/SQ ROOT of n
Testing with compounds is done 2-3 weeks after surgery to establish stable allodynia. In all experimental animals, baseline measurements were taken prior to drug administration and then at 24 hours and 5-23 days post dosing with Alzet osmotic minipump. The investigator was blinded to the identity of the drug groups. The % allodynia reversal is calculated as: [(Postdrug threshold−Predrug threshold)/(15-Predrug threshold)]×100.
Compound B was formulated in 50% DMSO (dimethyl sulfoxide; Sigma, St. Louis, Mo.). This solution was dosed orally TID at a dose of 0.3 or 1 mg/kg. For dosing in the osmotic minipumps (Model 1007D, Alzet Corp., Palo Alto, Calif.) the compound was loaded onto the pumps set to deliver a final dose of either 1 or 3 mg/kg/day. The vehicle for these studies is 50% DMSO.
Compound C was formulated first in 100% DMSO (Sigma, St. Louis, Mo.), then diluted down in 30% DMSO for a 10 mg/ml solution; 15% DMSO for a 3 mg/ml solution and further dilutions were made in water. The compound was dosed orally TID at a dose of either 0.3 or 1 mg/kg for a total daily dose of 1 or 3 mg/kg/day, respectively.

[2] = system: PLP-induced model of relapsing remitting EAE; experiment: Proteolipid-induced relapsing-remitting EAE in mice: clinical score and pain; format: in vivo
Excerpt: The mouse model of experimental autoimmune encephalomyelitis (EAE) has been used extensively to understand the mechanisms underlying the immunopathogenesis of MS. […] Components of the immune system including T cells, macrophage, and antibodies are important contributors to myelin destruction in EAE mice. Further, inflammation also gives rise to multifocal regions demyelination culminating in clinical signs of neurologic dysfunction that include loss of tail tone, abnormal gait and partial-to-complete hind-limb paralysis. PLP-induced EAE model offers the ability to simultaneously investigate the pathogenic mechanisms of CNS inflammation and demyelination and MS-associated pain, a multi-targeted concept that we have optimized here at Allergan. Using sterile technique proteolipid protein myelin peptide (PLP) (139-159: […]) is mixed 1:1 with incomplete Freund's adjuvant (IFA) (Final concentration of 2 mg/ml PLP). 8-10 week old Female SJL mice (Taconic) are injected subcutaneously with 100 μl PLP/IFA (200 μg PLP/injection) on both the right and left hind-flank (day 0) using a 26G needle. Mice immunized using this protocol experience a relapsing-remitting clinical course with episodes of motor impairment interspersed with periods of remission/clinical improvement. Furthermore, these mice display a robust pain phenotype that is most pronounced during periods of clinical remission.
Using this protocol, the onset of PLP-induced EAE in SJL mice occurs at an incidence of (˜90-100%) and is generally apparent by ˜12 days post-immunization, reaching peak disease by 14-21 days. PLP-EAE mice show physical symptoms of neurologic impairment, progressing from partial loss of tail tonicity to partial-to-complete hind-limb paralysis. Up to 75% of the mice will experience a relapsing-remitting clinical course with periods of remission flanked by episodes of motor impairment (hind-limb weakness and paralysis). Histologically, mice display extensive inflammation within white matter tracts (areas containing myelinated axons) of the brain and spinal cord, progressive infiltration and accumulation of inflammatory cells, demyelination and axonal loss. Mice with severe EAE show extensive cellular infiltrates, widespread foci of demyelination. PLP-immunized mice typically display the most severe clinical disease during the first episode of neurologic impairment (days 14-21). […]
Mice were routinely visually scored for behavioral abnormalities on a scale from 0-5; 0-no abnormality, 1-partial loss of tail tonicity (partial limp tail), 2-loss of tail tonicity and hind-limb weakness 3-unsteady gait and partial hind-limb paralysis, 4-complete hind-limb paralysis and 5-moribund or dead. […] Allodynia was measured by the Von Frey hairs method as described earlier. […]

[3] = 1 mg/kg/day TID oral for 5 days + 3 mg/kg FK506 BID SC for 5 days, mean % MPE ± SEM
[4] = 1 mg/kg/day TID oral for 5 days, mean % MPE ± SEM
[5] = 1 mg/kg/day osmotic minipump for 7 days + 3 mg/kg FK506 BID SC for 5 days
[6] = 1 mg/kg/day osmotic minipump, treatment for 7 days

## Clc1cccc(CNC2=NCCN2)c1Cl [Compound C]
[1]; [3]
  % Allodynia Reversal 24 hr post: 49 ± 13.15 %
  % Allodynia Reversal 23 day post: 21.82 ± 4.26%
[1]; [4]
  % Allodynia Reversal 24 hr post: 66.06 ± 10.71 %
  % Allodynia Reversal 23 day post: 81.48 ± 6.00 %
[1]
  blockade of the (long-term) analgesic effect by the immunosuppressant FK506: able to block
[2]; TID oral dosing (3 mg/kg/day) from day 7-13, FIG. 6
  clinical score compared to vehicle-treated mice from days 13-24: significantly reduced

## CCC1=CC(Cc2c[nH]cn2)CCC1 (centres unmarked) [Compound B]
[1]; [5]
  % Allodynia Reversal 24 hr post: 57.06 ± 14.52 %
  % Allodynia Reversal 7 day post: 16.43 ± 19.42%
[1]; [6]
  % Allodynia Reversal 24 hr post: 78.50 ± 7.85 %
  % Allodynia Reversal 7 day post: 73.35 ± 11.95 %
[1]
  blockade of the (long-term) analgesic effect by the immunosuppressant FK506: blockable
[2]; mice immunized with proteolipid protein, 3 mg/kg/day by osmotic minipump, FIG. 3
  pain: reduced
[2]; treatment during the development of clinical disease, FIG. 4
  symptoms of MS (clinical course of disease): significant effect on attenuating symptoms
[2]; treatment from days 7-10
  clinical score during relapses on days 14 (p<0.01) and 24: reduced
